Substitutions are numbered along the chain they refer to. Like-named read-outs stand apart in the source and are kept apart here.
Tests used:
[1] = molecular target: T1, E218Q mutant 5-HT3 receptor (Mus musculus, UniProt P23979, E218Q); type: cell-based; conditions: 1 mM 5-HT, n > 50
T1 sequence (P23979 24-489 E218Q): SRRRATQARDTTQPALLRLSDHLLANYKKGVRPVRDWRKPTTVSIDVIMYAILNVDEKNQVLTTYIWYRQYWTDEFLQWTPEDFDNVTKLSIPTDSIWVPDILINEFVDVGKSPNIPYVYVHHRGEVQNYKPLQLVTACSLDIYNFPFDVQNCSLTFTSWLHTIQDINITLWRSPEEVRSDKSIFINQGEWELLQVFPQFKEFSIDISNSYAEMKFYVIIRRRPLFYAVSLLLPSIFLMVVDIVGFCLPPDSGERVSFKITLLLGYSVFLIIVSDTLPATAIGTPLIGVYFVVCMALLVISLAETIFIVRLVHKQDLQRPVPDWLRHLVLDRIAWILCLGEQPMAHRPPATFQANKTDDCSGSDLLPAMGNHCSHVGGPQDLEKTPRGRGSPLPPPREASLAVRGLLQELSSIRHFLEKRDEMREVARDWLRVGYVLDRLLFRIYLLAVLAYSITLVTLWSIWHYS

[2] = molecular target: T2, E213Q mutant 5-HT3 receptor (Mus musculus, UniProt P23979, E213Q); experiment: Whole-cell patch-clamp, 5-HT dose-response, E213Q mutant in HEK 293 cells; type: cell-based; conditions: for Hill slope: E213Q, no added MgCl2
T2 sequence (P23979 24-489 E213Q): T1 sequence (P23979 24-489 E218Q) with E190Q, Q195E

[3] = molecular target: T3, E277A/S297R mutant 5-HT3 receptor (Mus musculus, UniProt P23979, E277A/S297R); type: cell-based; conditions: no added MgCl2
T3 sequence (P23979 24-489 E277A/S297R): T1 sequence (P23979 24-489 E218Q) with Q195E, E254A, S274R

[4] = molecular target: T4, V219L mutant 5-HT3 receptor (Mus musculus, UniProt P23979, V219L); experiment: Whole-cell patch-clamp, V219L mutant in HEK 293 cells; type: cell-based; conditions: 1 mM 5-HT, n > 50
T4 sequence (P23979 24-489 V219L): T1 sequence (P23979 24-489 E218Q) with Q195E, V196L

[5] = molecular target: T5, wild type 5-HT3 receptors (Mus musculus, UniProt P23979)
T5 sequence (P23979 24-489): T1 sequence (P23979 24-489 E218Q) with Q195E

[6] = molecular target: T6, E215Q mutant 5-HT3 receptor (Mus musculus, UniProt P23979, E215Q); conditions: no added MgCl2
T6 sequence (P23979 24-489 E215Q): T1 sequence (P23979 24-489 E218Q) with E192Q, Q195E

[7] = molecular target: T7, D204N mutant 5-HT3 receptor (Mus musculus, UniProt P23979, D204N); experiment: Whole-cell patch-clamp, D204N mutant in HEK 293 cells; type: cell-based; conditions: 1 mM 5-HT, n > 50
T7 sequence (P23979 24-489 D204N): T1 sequence (P23979 24-489 E218Q) with D181N, Q195E

With `NCCc1c[nH]c2ccc(O)cc12` [5-HT, 5-hydroxytryptamine] the “current response to 5-HT” value [1] was “unable to elicit a response”, the “rates of desensitisation, faster than wild type responses” value ([2]; E213Q versus wild type) was about 4 fold and the Hill slope ([2]; Ext. Ca2+ 0 mM) was 2.45 ± 0.22. For the same compound, the Hill slope ([2]; Ext. Ca2+ 1 mM) was 2.39 ± 0.16, the Hill slope ([2]; Ext. Ca2+ 3 mM) was 2.42 ± 0.16 and the Hill slope ([2]; Ext. Ca2+ 10 mM) was 1.62 ± 0.19. It also gave a Hill slope ([3]; Ext. Ca2+ 0 mM) of 2.04 ± 0.16, a Hill slope ([3]; Ext. Ca2+ 1 mM) of 1.64 ± 0.25 and a Hill slope ([3]; Ext. Ca2+ 3 mM) of 1.62 ± 0.30. The I/I max ([3]; Ext. Ca2+ 3 mM) was 0.99 ± 0.03, the Hill slope ([3]; Ext. Ca2+ 10 mM) was 1.35 ± 0.18 and the I/I max ([3]; Ext. Ca2+ 10 mM) was 0.96 ± 0.02. For the same compound, the “current response to 5-HT” value [4] was “unable to elicit a response”, the Hill slope ([5]; Ext. Ca2+ 0 mM, no added MgCl2) was 2.39 ± 0.18 and the Hill slope ([5]; Ext. Ca2+ 1 mM, no added MgCl2) was 2.24 ± 0.19. For the same compound, the Hill slope ([5]; Ext. Ca2+ 3 mM, no added MgCl2) was 2.08 ± 0.19, the Hill slope ([5]; Ext. Ca2+ 10 mM, no added MgCl2) was 2.08 ± 0.26 and the Hill slope ([5]; physiological conditions (1.0 mM CaCl2, 1.0 mM MgCl2), n = 23) was 2.31 ± 0.25. It also gave a Hill slope ([6]; Ext. Ca2+ 0 mM) of 2.98 ± 0.11, a Hill slope ([6]; Ext. Ca2+ 1 mM) of 3.09 ± 0.39 and a Hill slope ([6]; Ext. Ca2+ 3 mM) of 2.54 ± 0.19. For the same compound, the Hill slope ([6]; Ext. Ca2+ 10 mM) was 1.90 ± 0.24 and the “current response to 5-HT” value [7] was “unable to elicit a response”.

From paper PMC2649430 (Neuropharmacology, 2008)
